{
  "source": "patent US8466202B2",
  "about": "“Anthracenedione compounds” (Sunten Phytotech Co., Ltd., priority 2006, dated 2013)",
  "key": {"healthy male S.D. rats [1]": {"system": "healthy male S.D. rats", "assay": "Feces production in rats over the 10-day period (Example 3)", "format": "in vivo, rat", "conditions": "Sennosides 3.35 mg/kg", "how_it_was_run": "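Male S.D. rats (n=6 per arm) received sennosides 3.35 mg/kg/day, STD05 or ARE at 8 or 24 mg/kg/day, single anthraquinones at 4 mg/kg/day, or CP at 8 mg/kg/day over 10 days, with untreated controls. On days 1, 5 and 10, rats in metabolic cages gave 24-h feces, which were weighed wet, counted and dried at 100° C. to derive water content.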"}, "healthy male S.D. rats [2]": {"system": "healthy male S.D. rats", "assay": "Intestinal motility test after the feces tests (Example 3)", "format": "in vivo, rat", "conditions": "after the 10-day feces tests; control rats 61.1%; dose not stated", "protocol": "After the above-discussed feces tests, intestinal motility tests were conducted. Before the experiment, the rats were fasted for at least sixteen hours. The rats were then given the aforementioned drugs or extracts. After 3 hours, each rat was given 3 ml/kg of 0.5% methylcellulose solution-0.5% Evans blue dye. Each rat was sacrificed 30 minutes later and its abdominal cavity was cut open. The entire small intestine was extracted and carefully straightened. The entire stretch between the pylorous and cecum was measured as the small intestine length. The distance traveled by Evans blue dye along the intestines was also measured. During dissection, any unusual observations were recorded and photographed. The intestinal motility function was calculated in the following formula: Intestine motility=(Evans blue dye length/small intestine length)×100%. After finishing the feces tests, intestinal motility tests were conducted in the same manner described above. During dissection, any unusual observations were recorded and photographed. For comparison within the groups, a Post hoc Comparison was applied with p<0.05 indicating significant differences."}, "[3]": {"conditions": "Group I, Day 1, STD05 8 mg/kg, ARE 8 mg/kg, Aloe-emodin 4 mg/kg, Rhein 4 mg/kg"}, "[4]": {"conditions": "Group I, Day 5, STD05 8 mg/kg, ARE 8 mg/kg, Aloe-emodin 4 mg/kg, Rhein 4 mg/kg"}, "[5]": {"conditions": "Group I, Day 10, STD05 8 mg/kg, ARE 8 mg/kg, Aloe-emodin 4 mg/kg, Rhein 4 mg/kg"}, "[6]": {"conditions": "Group II, Day 1, STD05 24 mg/kg, ARE 24 mg/kg, Chrysophanol 4 mg/kg, Emodin 4 mg/kg"}, "[7]": {"conditions": "Group II, Day 5, STD05 24 mg/kg, ARE 24 mg/kg, Chrysophanol 4 mg/kg, Emodin 4 mg/kg"}, "[8]": {"conditions": "Group II, Day 10, STD05 24 mg/kg, ARE 24 mg/kg, Chrysophanol 4 mg/kg, Emodin 4 mg/kg"}},
  "data": [
    {"substance": "Sennosides", "values": [
      {"measurement": "Pellet count", "setting": "healthy male S.D. rats [1]; [3]", "result": 101},
      {"measurement": "Water content", "setting": "healthy male S.D. rats [1]; [3]", "result": 45.69, "unit": "%"},
      {"measurement": "Wet Weight", "setting": "healthy male S.D. rats [1]; [3]", "result": 18.72, "unit": "g"},
      {"measurement": "Pellet count", "setting": "healthy male S.D. rats [1]; [4]", "result": 119},
      {"measurement": "Water content", "setting": "healthy male S.D. rats [1]; [4]", "result": 48.68, "unit": "%"},
      {"measurement": "Wet Weight", "setting": "healthy male S.D. rats [1]; [4]", "result": 26.16, "unit": "g"},
      {"measurement": "Pellet count", "setting": "healthy male S.D. rats [1]; [5]", "result": 146},
      {"measurement": "Water content", "setting": "healthy male S.D. rats [1]; [5]", "result": 57.4, "unit": "%"},
      {"measurement": "Wet Weight", "setting": "healthy male S.D. rats [1]; [5]", "result": 36.38, "unit": "g"},
      {"measurement": "Pellet count", "setting": "healthy male S.D. rats [1]; [6]", "result": 134},
      {"measurement": "Water content", "setting": "healthy male S.D. rats [1]; [6]", "result": 61.09, "unit": "%"},
      {"measurement": "Wet Weight", "setting": "healthy male S.D. rats [1]; [6]", "result": 36.19, "unit": "g"},
      {"measurement": "Pellet count", "setting": "healthy male S.D. rats [1]; [7]", "result": 118},
      {"measurement": "Water content", "setting": "healthy male S.D. rats [1]; [7]", "result": 61.53, "unit": "%"},
      {"measurement": "Wet Weight", "setting": "healthy male S.D. rats [1]; [7]", "result": 36.42, "unit": "g"},
      {"measurement": "Pellet count", "setting": "healthy male S.D. rats [1]; [8]", "result": 132},
      {"measurement": "Water content", "setting": "healthy male S.D. rats [1]; [8]", "result": 53.99, "unit": "%"},
      {"measurement": "Wet Weight", "setting": "healthy male S.D. rats [1]; [8]", "result": 36.21, "unit": "g"},
      {"measurement": "intestinal motility", "setting": "healthy male S.D. rats [2]", "result": 67.9, "unit": "%"}
    ]}
  ]
}
